In US11154563B2, “Immunoproteasome inhibitors” (Principia Biopharma Inc., priority 2017, dated 2021) one finds IC50 data, which are given here for 20 compounds.

Broadly, the IC50 is the point on the concentration scale where inhibition reaches its midpoint.

Holding throughout (format): biochemical
Experiment [1] deals with immunoproteasome LPM2/β1i subunit (Homo sapiens, UniProt P28065+P40306). In words: Caliper-based proteasome enzymatic activity assay, LMP2. The following applies: human recombinant immunoproteasome 0.3 nM, FAM-peptide substrate 1 μM, 2 h at rt. As to the method: A Caliper-based proteasome assay (Caliper Life Sciences, Hopkinton, Mass.) was used to measure inhibition of the immunoproteasome LMP7/B5i subunit, the immunoproteasome LPM2/β1i subunit, and the constitutive proteasome β5c unit for a compound of Formula (I). For LMP7 and β5c, serial dilutions of test compounds were incubated with either human recombinant immunoprotcasome or constitutive proteasome (0.3 nM enzyme) and a carboxyfluorescein (FAM)-labeled peptide substrate FAM-TYETFKSIMKKSPF-NH2 (1 μM) at it for 3 h. The reaction was then terminated with a buffer containing the known proteasome inhibitor carfilzomib at a concentration of 5 uM. For LMP2, serial dilutions of test compounds were incubated with human recombinant immunoproteasome proteasome (0.3 nM enzyme) and a carboxyfluorescein (FAM)-labeled peptide substrate FAM-[…]-NH2 (1 μM) at rt for 2 h. The reaction was then terminated with a buffer containing the known proteasome inhibitor ixazomib at a concentration of 6.7 uM. The reaction buffer was 20 mM Hepes pH 7.4, 0.01% bovine serum albumin, 0.015% SDS, 0.5 mM EDTA, 1%0/DMSO. The peptide cleavage reaction product was quantified on a Caliper LabChip 3000. Percent inhibition was calculated for each compound dilution and the concentration that produced 50% inhibition was calculated. This value is presented as the IC50.

Experiment [2] concerns the target immunoproteasome LMP7/B5i subunit (Homo sapiens, UniProt P20618+P28062). In words: Caliper-based proteasome enzymatic activity assay, LMP7. The note with it: human recombinant immunoproteasome 0.3 nM, FAM-peptide substrate 1 μM, 3 h at rt. The procedure, abridged: (§1)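 Recombinant human immunoproteasome or constitutive proteasome (0.3 nM) with 1 μM FAM-peptide in 20 mM Hepes pH 7.4, 0.015% SDS, 0.01% BSA; LMP7/β5c ran 3 h at rt and were stopped with 5 uM carfilzomib, LMP2 ran 2 h and was stopped with 6.7 uM ixazomib. Cleaved product quantified by microfluidic separation; IC50 from percent inhibition.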

For experiment [3], the target named is constitutive proteasome β5c unit (Homo sapiens, UniProt P20618+P28074). In words: Caliper-based proteasome enzymatic activity assay, β5c. The note with it: human recombinant constitutive proteasome 0.3 nM, FAM-peptide substrate 1 μM, 3 h at rt; read-out: β5c subunit IC50. A digest of the protocol:
as §1

For `Cc1ccc(C[C@H](NC(=O)OC[C@H]2CCCCN2C(=O)C(C#N)=CC(C)(C)N2CCC(F)(F)C2)B(O)O)cc1` [Example 41, ((R)-1-(((((R)-1-(2-cyano-4-(3,3-difluoropyrrolidin-1-yl)-4-methylpent-2-enoyl)piperidin-2-yl)methoxy)carbonyl)amino)-2-(p-tolyl)ethyl)boronic acid], the IC50 in experiment [1] was greater than 5000 nM; in experiment [2], 1.6 nM; in experiment [3] it was 518 nM.
`CC(C)(C=C(C#N)C(=O)N1CCC[C@@H]1COC(=O)N[C@@H](Cc1ccccc1)B(O)O)N1CCC(F)(F)C1` [Example 35, ((R)-1-(((((R)-1-(2-cyano-4-(3,3-difluoropyrrolidin-1-yl)-4-methylpent-2-enoyl)pyrrolidin-2-yl)methoxy)carbonyl)amino)-2-phenylethyl)boronic acid]: the IC50 is greater than 5000 nM in experiment [1], 2 nM in experiment [2] and 3020 nM in experiment [3].
With `CC(C)(C=C(C#N)C(=O)N1CCC[C@@H]1COC(=O)N[C@@H](Cc1ccccc1)B(O)O)N1CCN(C2COC2)CC1` [Example 17, ((R)-1-(((((R)-1-(2-cyano-4-methyl-4-(4-(oxetan-3-yl)piperazin-1-yl)pent-2-enoyl)pyrrolidin-2-yl)methoxy)carbonyl)amino)-2-phenylethyl)boronic acid], the half-maximal inhibitory concentration (IC50) in experiment [1] was greater than 5000 nM; in experiment [2], 1.9 nM; in experiment [3], 2950 nM.
As to `CC(C)(C=C(C#N)C(=O)N1CCC[C@@H]1COC(=O)N[C@@H](Cc1ccccc1)B(O)O)N1CCOCC1` [Example 23, ((R)-1-(((((R)-1-(2-cyano-4-methyl-4-morpholinopent-2-enoyl)pyrrolidin-2-yl)methoxy)carbonyl)amino)-2-phenylethyl)boronic acid], the IC50 in experiment [1] is greater than 5000 nM; in experiment [2], 2.6 nM; in experiment [3], greater than 5000 nM.
`CC(C)(C=C(C#N)C(=O)N1CCC[C@@H]1COC(=O)N[C@@H](Cc1ccccc1)B(O)O)N1CCCCC1` [Example 20, ((R)-1-(((((R)-1-(2-cyano-4-methyl-4-(piperidin-1l-yl)pent-2-enoyl)pyrrolidin-2-yl)methoxy)carbonyl)amino)-2-phenylethyl)boronic acid]: the 50% inhibitory concentration (IC50) in experiment [1] is greater than 5000 nM; in experiment [2], 3.6 nM; in experiment [3], 4540 nM.
Regarding `CC(C)(C=C(C#N)C(=O)N1CCCC[C@@H]1COC(=O)N[C@@H](Cc1ccc(F)cc1)B(O)O)N1CCC(F)(F)C1` [Example 82, ((R)-1-(((((R)-1-(2-cyano-4-(3,3-difluoropyrrolidin-1-yl)-4-methylpent-2-enoyl)piperidin-2-yl)methoxy)carbonyl)amino)-2-(4-fluorophenyl)ethyl)boronic acid], the IC50 was greater than 5000 nM in experiment [1], 1.4 nM in experiment [2] and 2150 nM in experiment [3].
As for `C=CC(=O)N1CCCC[C@@H]1COC(=O)N[C@@H](Cc1ccccc1)B(O)O` [Example 8, ((R)-1-(((((R)-1-acryloylpiperidin-2-yl)methoxy)carbonyl)amino)-2-phenylethyl)boronic acid], the IC50 in experiment [1], in experiment [2] and in experiment [3] was greater than 5000 nM in each case.
As to `C=CC(=O)N1CCC[C@@H]1COC(=O)N[C@@H](Cc1coc2ccccc12)B(O)O` [Example 36, ((R)-1-(((((R)-1-acryloylpyrrolidin-2-yl)methoxy)carbonyl)amino)-2-(benzofuran-3-yl)ethyl)boronic acid], the concentration for half-maximal inhibition (IC50) in experiment [1] is greater than 5000 nM; in experiment [2] it was 6.9 nM; in experiment [3], 397 nM.
For `CC(C)C=C(C#N)C(=O)N1CCC[C@H]1COC(=O)N[C@@H](Cc1ccccc1)B(O)O` [Example 12, ((R)-1-(((((S)-1-(2-cyano-4-methylpent-2-enoyl)pyrrolidin-2-yl)methoxy)carbonyl)amino)-2-phenylethyl)boronic acid], in that order: greater than 5000 nM, 39 nM and greater than 5000 nM.
For the compound `C=CC(=O)N1CCCC[C@H]1COC(=O)N[C@@H](Cc1ccccc1)B(O)O` [Example 11, ((R)-1-(((((S)-1-acryloylpiperidin-2-yl)methoxy)carbonyl)amino)-2-phenylethyl)boronic acid], the IC50 in experiment [1] is 3240 nM; in experiment [2], 957 nM; in experiment [3] it was greater than 5000 nM.
Consider `CC(C)(C=C(C#N)C(=O)N1CCCC[C@@H]1COC(=O)N[C@@H](Cc1ccccc1)B(O)O)N1CCC(F)(F)CC1` [Example 31, ((R)-1-(((((R)-1-(2-cyano-4-(4,4-difluoropiperidin-1-yl)-4-methylpent-2-enoyl)piperidin-2-yl)methoxy)carbonyl)amino)-2-phenylethyl)boronic acid], for which the results for the IC50 in experiment [1], in experiment [2] and in experiment [3] were greater than 5000 nM, 12 nM and 2390 nM, respectively.
For `CC(C)(C)C=C(C#N)C(=O)N1C[C@@H]2C[C@@H]2[C@@H]1COC(=O)N[C@@H](Cc1ccccc1)B(O)O` [Example 26], in that order: greater than 5000 nM, 1.2 nM and 2110 nM.
For `CC(C)(C=C(C#N)C(=O)N1CCC[C@]1(C)COC(=O)N[C@@H](Cc1ccccc1)B(O)O)N1CCC(F)(F)C1` [Example 85, ((R)-1-(((((R)-1-(2-cyano-4-(3,3-difluoropyrrolidin-1-yl)-4-methylpent-2-enoyl)-2-methylpyrrolidin-2-yl)methoxy)carbonyl)amino)-2-phenylethyl)boronic acid], in that order: greater than 5000 nM, 2 nM and 4890 nM.
With `CC(C)(C)/C=C(\C#N)C(=O)N1C[C@H](F)C[C@@H]1COC(=O)N[C@@H](Cc1ccccc1)B(O)O` [Example 90, ((R)-1-(((((2R,4R)-1-((E)-2-cyano-4,4-dimethylpent-2-enoyl)-4-fluoropyrrolidin-2-yl)methoxy)carbonyl)amino)-2-phenylethyl)boronic acid], the IC50 in experiment [1] stood at 4500 nM; in experiment [2], 1 nM; in experiment [3], 1960 nM.
On to `Cc1ccc(C[C@H](NC(=O)OC[C@H]2CCCN2C(=O)C(C#N)=CC(C)(C)C)B(O)O)cc1` [Example 18, ((R)-1-(((((R)-1-(2-cyano-4,4-dimethylpent-2-enoyl)pyrrolidin-2-yl)methoxy)carbonyl)amino)-2-(p-tolyl)ethyl)boronic acid], for which the values for the 50% inhibitory concentration (IC50) in experiment [1], in experiment [2] and in experiment [3] were greater than 5000 nM, 2 nM and 1540 nM, respectively.
For `Cc1ccc(C[C@H](NC(=O)OC[C@@H]2CCCCCN2C(=O)C(C#N)=CC(C)(C)C)B(O)O)cc1` [Example 33, ((R)-1-(((((S)-1-(2-cyano-4,4-dimethylpent-2-enoyl)azepan-2-yl)methoxy)carbonyl)amino)-2-(p-tolyl)ethyl)boronic acid], in that order: greater than 5000 nM, 41 nM and greater than 5000 nM.
For the compound `CC(C)(C=C(C#N)C(=O)N1CCCC[C@@H]1COC(=O)N[C@@H](Cc1ccccc1)B(O)O)N1CCC(F)(F)C1` [Example 28, ((R)-1-(((((R)-1-(2-cyano-4-(3,3-difluoropyrrolidin-1-yl)-4-methylpent-2-enoyl)piperidin-2-yl)methoxy)carbonyl)amino)-2-phenylethyl)boronic acid], the IC50 in experiment [1] was greater than 5000 nM; in experiment [2], 1.5 nM; in experiment [3], 2190 nM.
With `CC(C)(C)C=C(C#N)C(=O)N1CCC[C@@H]1COC(=O)N[C@@H](Cc1coc2ccccc12)B(O)O` [Example 39, ((R)-2-(benzofuran-3-yl)-1-(((((R)-1-(2-cyano-4,4-dimethylpent-2-enoyl)pyrrolidin-2-yl)methoxy)carbonyl)amino)ethyl)boronic acid], the IC50 in experiment [1] is greater than 5000 nM; in experiment [2], 1.2 nM; in experiment [3] it was 187 nM.
For `Cc1ccc(C[C@H](NC(=O)OC[C@H]2CCCCCN2C(=O)C(C#N)=CC(C)(C)C)B(O)O)cc1` [Example 32, ((R)-1-(((((R)-1-(2-cyano-4,4-dimethylpent-2-enoyl)azepan-2-yl)methoxy)carbonyl)amino)-2-(p-tolyl)ethyl)boronic acid], in that order: greater than 5000 nM, 9.2 nM and 713 nM.
For `CC(C)(C=C(C#N)C(=O)N1C[C@@H]2C[C@@H]2[C@@H]1COC(=O)N[C@@H](Cc1ccccc1)B(O)O)N1CCC(F)(F)C1` [Example 74, ((R)-1-(((((1S,2R,5R)-3-(2-cyano-4-(3,3-difluoropyrrolidin-1-yl)-4-methylpent-2-enoyl)-3-azabicyclo[3.1.0]hexan-2-yl)methoxy)carbonyl)amino)-2-phenylethyl)boronic acid], in that order: 3360 nM, 1.2 nM and 925 nM.
